From patent US6610710B2, “Phenylalanine derivatives” (Ajinomoto Co., Inc., priority 1999, dated 2003)
pIC50: −log10 of the molar value.

What follows are compounds tested against T1, integrin α4β1 (Jurkat cells) binding with recombinant human VCAM-1 (Homo sapiens, UniProt P05556+P13612) (assay: VCAM antagonistic activity (VCAM-1/α4β1 binding assay), Jurkat cell adhesion). Conditions: read-out: VCAM/α 4 β 1 antagonistic activity to integrin (IC50).
T1 construct: cell strain Jurkat (ATCC TIB-152) of human T cells, known to express integrin α4β1; endogenous in cells; host or cells: Jurkat (ATCC TIB-152), human T cells
T1 sequence (P13612 34-1032): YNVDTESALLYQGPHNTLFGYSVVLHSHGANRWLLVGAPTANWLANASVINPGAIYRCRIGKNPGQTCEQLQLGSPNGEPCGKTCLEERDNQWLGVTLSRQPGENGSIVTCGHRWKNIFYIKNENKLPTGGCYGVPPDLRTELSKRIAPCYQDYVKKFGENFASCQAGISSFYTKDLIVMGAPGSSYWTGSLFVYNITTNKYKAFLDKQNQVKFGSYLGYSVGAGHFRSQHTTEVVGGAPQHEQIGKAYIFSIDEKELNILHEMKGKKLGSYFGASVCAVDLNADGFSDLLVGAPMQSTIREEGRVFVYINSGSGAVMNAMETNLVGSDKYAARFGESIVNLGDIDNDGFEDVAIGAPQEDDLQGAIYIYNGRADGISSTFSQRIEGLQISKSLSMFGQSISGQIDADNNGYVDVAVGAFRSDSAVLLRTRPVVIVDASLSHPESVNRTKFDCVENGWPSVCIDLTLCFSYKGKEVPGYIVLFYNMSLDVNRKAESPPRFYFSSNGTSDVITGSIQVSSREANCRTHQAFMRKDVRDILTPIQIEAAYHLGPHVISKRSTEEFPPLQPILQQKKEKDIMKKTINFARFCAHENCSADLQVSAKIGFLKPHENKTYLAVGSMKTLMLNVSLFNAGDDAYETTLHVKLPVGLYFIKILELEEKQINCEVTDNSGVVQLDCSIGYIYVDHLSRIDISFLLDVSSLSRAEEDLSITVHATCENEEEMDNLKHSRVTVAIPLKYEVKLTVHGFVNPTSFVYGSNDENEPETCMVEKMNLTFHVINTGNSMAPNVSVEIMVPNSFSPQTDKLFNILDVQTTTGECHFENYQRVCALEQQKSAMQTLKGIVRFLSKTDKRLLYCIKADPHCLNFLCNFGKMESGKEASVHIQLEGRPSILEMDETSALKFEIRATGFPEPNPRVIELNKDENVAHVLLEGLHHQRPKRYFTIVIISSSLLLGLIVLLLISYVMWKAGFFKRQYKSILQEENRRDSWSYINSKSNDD
T1 sequence (P05556 21-798): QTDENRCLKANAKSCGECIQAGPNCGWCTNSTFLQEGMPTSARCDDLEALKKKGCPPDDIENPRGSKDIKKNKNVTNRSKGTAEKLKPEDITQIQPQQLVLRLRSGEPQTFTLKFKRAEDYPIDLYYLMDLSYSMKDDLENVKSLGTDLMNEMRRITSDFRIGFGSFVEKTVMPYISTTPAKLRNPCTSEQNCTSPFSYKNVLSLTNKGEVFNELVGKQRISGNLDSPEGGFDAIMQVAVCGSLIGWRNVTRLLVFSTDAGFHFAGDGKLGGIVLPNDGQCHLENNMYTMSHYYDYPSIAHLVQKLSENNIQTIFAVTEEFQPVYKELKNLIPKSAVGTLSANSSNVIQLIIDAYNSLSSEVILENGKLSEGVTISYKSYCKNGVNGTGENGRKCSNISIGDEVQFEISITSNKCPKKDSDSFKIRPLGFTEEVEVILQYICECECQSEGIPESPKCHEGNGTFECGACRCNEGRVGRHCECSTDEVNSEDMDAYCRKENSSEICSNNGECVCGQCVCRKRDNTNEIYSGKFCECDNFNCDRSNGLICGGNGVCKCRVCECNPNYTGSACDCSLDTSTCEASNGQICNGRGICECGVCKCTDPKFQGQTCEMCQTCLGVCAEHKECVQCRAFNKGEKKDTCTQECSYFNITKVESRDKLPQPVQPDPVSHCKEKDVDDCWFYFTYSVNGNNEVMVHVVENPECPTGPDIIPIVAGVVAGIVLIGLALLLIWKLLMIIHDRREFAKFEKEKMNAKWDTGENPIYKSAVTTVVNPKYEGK
Format: cell-based
Description: (Test Example) VCAM Antagonistic Activity (VCAM-1/α4β1 Binding Assay):
The capacity of a test substance antagonistic to the binding of cell strain Jurkat (ATCC TIB-152) of human T cells, known to express integrin α4β1, with VCAM-1 was determined. 100 μl/well of a solution (500 ng/ml ) of recombinant human VCAM-1 (R & D systems) diluted with buffer A (0.1 M NaHCO3, pH 9.6) was added to a micro titer plate having 96 wells (Nunc Maxisorp). After the incubation at 4° C. overnight, unbound VCAM-1 was removed by once washing with PBS. After completion of the washing, a buffer (buffer B) obtained by diluting Block Ace® (Dainippon Pharmaceutical Co., Ltd.) with PBS to 1/4 concentration was added in an amount of 150 μl /well. After the incubation at room temperature for 1 hour, buffer B was removed and the plate was washed with PBS once.
Jurkat cells were washed with Dulbecco modified Eagle medium (SIGMA, hereinafter referred to as “DMEM”) twice and then incubated in DMEM containing 10 μg/ml of Calcein-AM (Wako Pure Chemical Industries, Ltd.) at 37° C. in dark place for 30 minutes to label them with fluorescence. The cells were again suspended in a binding buffer (DMEM containing 20 mM HEPES, 0.1% BSA).
50 μl of a test substance of various concentrations obtained by the dilution with the binding buffer was added to the plate. Immediately thereafter, 50 μl (final volume: 100 μl/well) of the fluorescent Jurkat cells (4×10^6 cells/ml ) were added thereto, and they were incubated at room temperature for 30 minutes. After the shaking on a plate shaker (IKA MTS-4) at 800 rpm for 30 seconds, the solution was immediately removed to remove the unbound cells. The fluorescence quantity of the bound cells remaining in the wells was determined with a fluorescent plate reader (Wallac 1420 ARVO multi-label counter) (filter excitation wave length: 485 nm, emission wave length: 535 nm). The fluorescent strength thus obtained is proportional to the number of Jurkat cells bound to VCAM-1 and remaining on the plate. The binding rate of each test material in various concentrations was determined while the fluorescent strength of the test material-free well was determined to be 100%. The concentration IC50 for the 50% binding inhibition was calculated.
In the case of O=C(O)[C@H](Cc1ccc(OCc2c(Cl)cccc2Cl)cc1)NC(=O)[C@H]1CC[C@H](C(=O)NNc2ccccc2)CC1 [Example 3, N-(Trans-4-phenylhydrazinocarbonylcyclohexane-1-carbonyl)-O-(2,6-dichlorobenzyl)-L-tyrosine], the pIC50 was 4.30 to 4.60.
In the case of O=C(O)[C@H](Cc1ccc(OCc2c(Cl)cccc2Cl)cc1)NC(=O)[C@H]1CC[C@H](C(=O)NNc2ccc(Br)cc2)CC1 [Example 4, N-[Trans-4-(4-bromophenylhydrazinocarbonyl)cyclohexane-1-carbonyl]-O-(2,6-dichlorobenzyl)-L-tyrosine], the pIC50 was 4.30 to 4.60.
Work on O=C(O)[C@H](Cc1ccc(OCc2c(Cl)cccc2Cl)cc1)NC(=O)[C@H]1CC[C@H](C(=O)NCc2ccccc2)CC1 [Example 6] yielded a pIC50 of 4.30 to 4.60.
Compound COc1cccc(NNC(=O)[C@H]2CC[C@H](C(=O)N[C@@H](Cc3ccc(OCc4c(Cl)cccc4Cl)cc3)C(=O)O)CC2)c1 [Example 44] has a pIC50 of 4.60 to 5.30.
With O=C(Nc1ccc(C[C@H](NC(=O)[C@H]2CC[C@H](C(=O)O)CC2)C(=O)O)cc1)c1snnc1-c1ccccc1 [Example 45, N-(Trans-4-carboxycyclohexane-1-carbonyl)-4-{[(4-phenyl-1,2,3-thiadiazole-5-yl)carbonyl]amino}-L-phenylalanine] the pIC50 was 5.30 to 6.00.
In the case of COc1cccc(OC)c1-c1ccc(C[C@H](NC(=O)[C@H]2CC[C@H](C(=O)O)CC2)C(=O)O)cc1 [Example 50, N-(Trans-4-carboxycyclohexane-1-carbonyl)-4-(2,6-dimethoxyphenyl)-L-phenylalanine], the pIC50 was 5.30 to 6.00.
COc1ccc(NNC(=O)[C@H]2CC[C@H](C(=O)N[C@@H](Cc3ccc(-c4c(OC)cccc4OC)cc3)C(=O)O)CC2)cc1 [Example 51, N-[Trans-4-(4-methoxyphenylhydrazinocarbonyl)cyclohexane-1-carbonyl]-4-(2,6-dimethoxyphenyl)-L-phenylalanine] showed a pIC50 of 5.30 to 6.00.
In the case of Cc1ccc(NNC(=O)[C@H]2CC[C@H](C(=O)N[C@@H](Cc3ccc(OCc4c(Cl)cccc4Cl)cc3)C(=O)O)CC2)cc1 [Example 34], the pIC50 was 5.30 to 6.00.
COc1ccc(NNC(=O)[C@H]2CC[C@H](C(=O)N[C@@H](Cc3ccc(OCc4c(Cl)cccc4Cl)cc3)C(=O)O)CC2)cc1 [Example 14] showed a pIC50 of 5.30 to 6.00.
O=C(O)[C@H](Cc1ccc(OCc2c(Cl)cccc2Cl)cc1)NC(=O)[C@H]1CC[C@H](C(=O)O)CC1 [Example 2, N-(Trans-4-carboxycyclohexane-1-carbonyl)-O-(2,6-dichlorobenzyl)-L-tyrosine] was tested, and the pIC50 was 4.60 to 5.30.
Work on O=C(O)[C@H](Cc1ccc(OCc2c(Cl)cccc2Cl)cc1)NC(=O)[C@H]1CC[C@H](C(=O)NNc2ccc(OC(F)(F)F)cc2)CC1 [Example 35] yielded a pIC50 of 4.30 to 4.60.
With COc1ccc(NNC(=O)[C@H]2CC[C@H](C(=O)N[C@@H](Cc3ccc(NC(=O)c4snnc4-c4ccccc4)cc3)C(=O)O)CC2)cc1 [Example 46, N-[Trans-4-(4-methoxyphenylhydrazinocarbonyl)cyclohexane-1-carbonyl]-4-{[(4-phenyl-1,2,3-thiadiazole-5-yl)carbonyl]amino}-L-phenyl-alanine] the pIC50 was 4.60 to 5.30.
